Laboratory results: ChEMBL document CHEMBL6071153, “Design, synthesis, and evaluation of antitumor activity in Pseudolaric acid B Azole derivatives: Novel and potent angiogenesis inhibitor via regulation of the PI3K/AKT and MAPK mediated HIF-1/VEGF signaling pathway” (Eur J Med Chem, 2024)
pIC50: −log10 of the molar value. Calls of active or inactive are those of the source. The rule behind the calls is not given here.

How the values were obtained:
[1] = Toxicity in Balb/c mouse xenografted with human SiHa cells assessed as reduction in body weight at 30 mg/kg,ip administration measured after 22 days; format: organism-based; conditions: in vivo, 528 h, time 22 day
[2] = Inhibition of HIF-1 transcriptional activity in human HCT-116 cells preincubated for 1 hr under normoxic condition followed by 24 hrs incubation under hypoxic condition by luciferase reporter assay; format: cell-based
SiHa [3] = assay: Inhibition of hypoxia-induced HIF-1alpha accumulation in human SiHa cells at 10 uM incubated for 24 hrs under hypoxic condition by Western blotting analysis; format: functional, cell-based
SiHa [4] = assay: Inhibition of VEGFR in human SiHa cells assessed as decrease in intracellular VEGFR protein expression at 10 uM incubated for 24 hrs under hypoxic condition by immunofluorescence staining based analysis relative to M2; format: cell-based
HUVEC [5] = assay: Antiangiogenic activity against human HUVEC cells assessed as inhibition of blood vessel formation at 10 uM incubated for 4 hrs under hypoxic condition by fluorescence microscopic analysis; format: functional, cell-based
SiHa [6] = assay: Cytotoxicity against human SiHa cells assessed as inhibition of cell growth incubated for 24 hrs under normoxic condition by MTT assay; format: functional, cell-based
[7] = Inhibition of VEGFR mediated endocytosis in human SiHa cells incubated for 24 hrs under hypoxic condition by ELISA; format: cell-based
HUVEC [8] = assay: Inhibition of cell migration in human HUVEC cells at 10 uM incubated for 48 hrs under hypoxic condition by microscopic analysis relative to PAB; format: functional
HUVEC [9] = assay: Inhibition of cell migration in human HUVEC cells at 10 uM incubated for 48 hrs under hypoxic condition by microscopic analysis relative to M2; format: functional, cell-based
SiHa [10] = assay: Inhibition of hypoxia-induced HIF-1beta accumulation in human SiHa cells at 10 uM incubated for 24 hrs under hypoxic condition by Western blotting analysis; format: functional, cell-based
[11] = Inhibition of PI3K/AKT/mTOR signalling pathway in human SiHa cells assessed as downregulation of JNK phosphorylation at 10 uM incubated for 24 hrs under hypoxic condition by Western blotting analysis; format: cell-based
[12] = Toxicity in Balb/c mouse assessed as change in animal fur at 50 mg/kg,ip administration for 1 week; format: organism-based; conditions: in vivo, 168 h, time 1 weeks
[13] = Toxicity in Balb/c mouse assessed as fatality at 50 mg/kg,ip administration for 1 week; format: organism-based; conditions: in vivo, 168 h, time 1 weeks
SiHa [14] = assay: Antitumor activity against human SiHa cells xenografted in Balb/c mouse assessed as reduction in tumor growth at 30 mg/kg,ip administration measured after 22 days; format: functional, organism-based; conditions: time 22.0 day
SiHa [15] = assay: Antitumor activity against human SiHa cells xenografted in Balb/c mouse assessed as reduction in tumor volume at 30 mg/kg,ip administration measured after 22 days; format: functional, organism-based; conditions: time 22.0 day
SiHa [16] = assay: Antitumor activity against human SiHa cells xenografted in Balb/c mouse assessed as reduction in tumor weight at 30 mg/kg,ip administration measured after 22 days; format: functional, organism-based; conditions: time 22.0 day
MDA-MB-231 [17] = assay: Cytotoxicity against human MDA-MB-231 cells assessed as inhibition of cell growth incubated for 96 hrs under hypoxic condition by MTT assay; format: functional, cell-based; conditions: MDA-MB-231, 96 h
SiHa [18] = assay: Inhibition of hypoxia-induced HIF-1alpha accumulation in human SiHa cells at 0.3 to 10 uM incubated for 24 hrs under hypoxic condition by Western blotting analysis; format: functional, cell-based; conditions: dose 0.3-10 µM
SiHa [19] = assay: Inhibition of VEGFR in human SiHa cells assessed as decrease in intracellular VEGFR protein expression at 10 uM incubated for 24 hrs under hypoxic condition by immunofluorescence staining based analysis; format: cell-based
HUVEC [20] = assay: Inhibition of cell invasion in human HUVEC cells at 1 to 10 uM incubated for 48 hrs under hypoxic condition by crystal violet staining based microscopic analysis relative to PAB; format: functional; conditions: dose 1-10 µM
HUVEC [21] = assay: Antiangiogenic activity against human HUVEC cells assessed as inhibition of blood vessel formation at 1 to 10 uM incubated for 4 hrs under hypoxic condition by fluorescence microscopic analysis; format: functional, cell-based; conditions: dose 1-10 µM
SiHa [22] = assay: Inhibition of hypoxia-induced HIF-1beta accumulation in human SiHa cells at 0.3 to 10 uM incubated for 24 hrs under hypoxic condition by Western blotting analysis; format: functional, cell-based; conditions: dose 0.3-10 µM
HUVEC [23] = assay: Inhibition of cell migration in human HUVEC cells at 1 uM incubated for 48 hrs under hypoxic condition by microscopic analysis relative to PAB; format: functional
SiHa [24] = assay: Inhibition of VEGFR in human SiHa cells incubated for 24 hrs under hypoxic condition by ELISA; format: cell-based
HUVEC [25] = assay: Inhibition of cell migration in human HUVEC cells at 3 uM incubated for 48 hrs under hypoxic condition by microscopic analysis relative to PAB; format: functional
HUVEC [26] = assay: Inhibition of cell migration in human HUVEC cells at 1 to 10 uM under hypoxic condition by microscopic analysis; format: functional, cell-based; conditions: dose 1-10 µM, TDE = time-dependent effect
HUVEC [27] = assay: Inhibition of cell migration in human HUVEC cells incubated upto 48 hrs under hypoxic condition by microscopic analysis; format: functional, cell-based
SiHa [28] = assay: Inhibition of hypoxia-induced HIF-1alpha accumulation in human SiHa cells assessed as decrease in nuclear HIF-1alpha level at 10 uM incubated for 24 hrs under hypoxic condition by immunofluorescence staining based analysis; format: functional, cell-based
[29] = target: Hypoxia-inducible factor 1-alpha (Homo sapiens) (UniProt Q16665); assay: Inhibition of HIF-1alpha in human SiHa cells assessed as downregulation of HIF-1alpha protein expression incubated upto 60 mins under hypoxic condition by Western blotting analysis; format: cell-based
Chain of Hypoxia-inducible factor 1-alpha (Homo sapiens) (Q16665 whole entry, looked up): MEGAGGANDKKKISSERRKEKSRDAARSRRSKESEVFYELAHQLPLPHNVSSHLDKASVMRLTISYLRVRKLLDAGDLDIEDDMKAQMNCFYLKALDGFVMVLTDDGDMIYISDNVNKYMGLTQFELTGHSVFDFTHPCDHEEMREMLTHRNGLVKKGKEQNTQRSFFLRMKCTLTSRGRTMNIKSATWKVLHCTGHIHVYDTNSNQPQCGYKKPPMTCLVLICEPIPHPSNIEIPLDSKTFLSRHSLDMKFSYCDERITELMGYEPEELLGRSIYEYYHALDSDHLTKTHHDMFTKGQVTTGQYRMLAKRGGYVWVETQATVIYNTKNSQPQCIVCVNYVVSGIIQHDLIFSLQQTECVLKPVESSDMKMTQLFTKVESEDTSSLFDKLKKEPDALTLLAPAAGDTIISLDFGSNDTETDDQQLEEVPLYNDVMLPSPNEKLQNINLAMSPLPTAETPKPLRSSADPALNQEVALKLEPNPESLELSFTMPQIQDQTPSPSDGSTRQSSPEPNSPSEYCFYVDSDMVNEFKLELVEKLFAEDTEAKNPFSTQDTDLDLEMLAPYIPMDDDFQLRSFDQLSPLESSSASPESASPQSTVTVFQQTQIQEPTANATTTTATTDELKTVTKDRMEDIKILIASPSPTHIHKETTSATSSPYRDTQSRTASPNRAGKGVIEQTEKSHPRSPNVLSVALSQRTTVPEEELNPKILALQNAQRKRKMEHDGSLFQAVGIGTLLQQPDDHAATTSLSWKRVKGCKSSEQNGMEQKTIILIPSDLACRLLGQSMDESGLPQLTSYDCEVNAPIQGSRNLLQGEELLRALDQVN

[30] = target: Hypoxia-inducible factor 1-alpha (Homo sapiens) (UniProt Q16665); assay: Inhibition of HIF-1alpha in human SiHa cells assessed as downregulation of HIF-1alpha protein expression incubated upto 60 mins under hypoxic condition in presence of CHX by Western blotting analysis; format: cell-based
[31] = target: Hypoxia-inducible factor 1-alpha (Homo sapiens) (UniProt Q16665); assay: Inhibition of HIF-1alpha in human SiHa cells assessed as downregulation of HIF-1alpha protein expression incubated upto 60 mins under hypoxic condition in presence of MG-132 by Western blotting analysis; format: cell-based
SiHa [32] = assay: Inhibition of HIF-1beta in human SiHa cells assessed as downregulation of HIF-1beta protein expression incubated upto 60 mins under hypoxic condition in presence of MG-132 by Western blotting analysis; format: cell-based
[33] = Inhibition of PI3K/AKT/mTOR signalling pathway in human SiHa cells assessed as downregulation of PI3K protein expression at 0.3 to 10 uM incubated for 24 hrs under hypoxic condition by Western blotting analysis; format: cell-based; conditions: dose 0.3-10 µM
[34] = Inhibition of PI3K/AKT/mTOR signalling pathway in human SiHa cells assessed as downregulation of AKT protein expression at 0.3 to 10 uM incubated for 24 hrs under hypoxic condition by Western blotting analysis; format: cell-based; conditions: dose 0.3-10 µM
[35] = Inhibition of PI3K/AKT/mTOR signalling pathway in human SiHa cells assessed as downregulation of mTOR protein expression at 0.3 to 10 uM incubated for 24 hrs under hypoxic condition by Western blotting analysis; format: cell-based; conditions: dose 0.3-10 µM
[36] = Inhibition of PI3K/AKT/mTOR signalling pathway in human SiHa cells assessed as downregulation of ERK1/2 phosphorylation at 10 uM incubated for 24 hrs under hypoxic condition by Western blotting analysis; format: cell-based
[37] = Inhibition of PI3K/AKT/mTOR signalling pathway in human SiHa cells assessed as downregulation of p38 phosphorylation at 10 uM incubated for 24 hrs under hypoxic condition by Western blotting analysis; format: cell-based
[38] = Inhibition of PI3K/AKT/mTOR signalling pathway in human SiHa cells assessed as downregulation of ERK1/2 protein expression at 10 uM incubated for 24 hrs under hypoxic condition by Western blotting analysis; format: cell-based
[39] = Inhibition of PI3K/AKT/mTOR signalling pathway in human SiHa cells assessed as downregulation of JNK protein expression at 10 uM incubated for 24 hrs under hypoxic condition by Western blotting analysis; format: cell-based
[40] = Inhibition of PI3K/AKT/mTOR signalling pathway in human SiHa cells assessed as downregulation of p38 protein expression at 10 uM incubated for 24 hrs under hypoxic condition by Western blotting analysis; format: cell-based
SiHa [41] = assay: Antitumor activity against human SiHa cells xenografted in Balb/c mouse assessed as reduction in HIF-1alpha expression in tumor at 30 mg/kg,ip administration measured after 22 days by immunohistochemical staining based analysis; format: functional, organism-based; conditions: time 22.0 day
SiHa [42] = assay: Antitumor activity against human SiHa cells xenografted in Balb/c mouse assessed as reduction in VEGF expression in tumor at 30 mg/kg,ip administration measured after 22 days by immunohistochemical staining based analysis; format: functional, organism-based; conditions: time 22.0 day
MDA-MB-231 [43] = assay: Cytotoxicity against human MDA-MB-231 cells assessed as fold increase in inhibition of cell growth incubated for 96 hrs under hypoxic condition by MTT assay relative to 4-hydroxycoumarin; format: functional
MDA-MB-231 [44] = assay: Cytotoxicity against human MDA-MB-231 cells assessed as fold increase in inhibition of cell growth incubated for 96 hrs under hypoxic condition by MTT assay relative to doxorubicin; format: functional

## O=c1[nH]cc(F)c(=O)[nH]1 [FLUOROURACIL]
[1]
  Activity: Non-Toxic

## OC1CCN(CCOc2cccc(Cn3nc(-c4nc(-c5ccc(OC(F)(F)F)cc5)no4)c4ccccc43)c2)CC1
[2]
  pIC50: 6.26

## C[C@H]1[C@H](C)CC[C@]2(C(=O)OCCCn3ncn(-c4ccccc4)c3=O)CC[C@]3(C)C(=CC[C@@H]4[C@@]5(C)CCC(O)C(C)(C)[C@@H]5CC[C@]43C)[C@H]12 (some centres not stated)
[2]
  pIC50: 4.43

## COC(=O)C1=CC[C@@]23CC[C@@H]([C@@](C)(/C=C/C=C(\C)C(=O)O)OC2=O)[C@@]3(OC(C)=O)CC1 [PSEUDOLARIC ACID B]
SiHa [3]
  inhibition: Active
SiHa [4]
  inhibition: Active
HUVEC [5]
  Activity: Active
SiHa [6]
  pIC50: < 4.52
[7]
  pIC50: 5.26
HUVEC [8]
  inhibition at 10 µM: 68.5%
HUVEC [9]
  inhibition: Active
SiHa [10]
  inhibition: Active
[11]
  inhibition: inactive
[12]
  Activity: Non-Toxic
[13]
  Activity: Non-Toxic
[1]
  Activity: Non-Toxic
SiHa [14]
  Activity: Active
SiHa [15]
  Activity: Active
SiHa [16]
  Activity: Active

## O=c1cc(O)c2ccccc2o1 [4-HYDROXYCOUMARINS]
MDA-MB-231 [17]
  pIC50: < 4.00

## COC(=O)C1=CC[C@@]23CC[C@@H]([C@@](C)(/C=C/C=C(\C)C(=O)OCC(=O)NCc4cn(-c5ccc(Cl)cc5)nn4)OC2=O)[C@@]3(OC(C)=O)CC1
SiHa [18]
  inhibition: Active
SiHa [19]
  inhibition: Active
HUVEC [20]
  inhibition: Active
HUVEC [21]
  Activity: Active
SiHa [22]
  inhibition: Active
HUVEC [23]
  inhibition at 1 µM: 35.6%
SiHa [6]
  pIC50: < 4.52
[7]
  pIC50: 6.17
SiHa [24]
  inhibition: Dose-Dependent Effect
HUVEC [25]
  inhibition at 3 µM: 66.1%
HUVEC [8]
  inhibition at 10 µM: 88.8%
HUVEC [26]
  inhibition: Tde
HUVEC [27]
  inhibition: Dose-Dependent Effect
SiHa [28]
  inhibition: Active
[29]
  inhibition: Active
[30]
  inhibition: inactive
[31]
  inhibition: Active
SiHa [32]
  inhibition: inactive
[33]
  inhibition: Active
[34]
  inhibition: Active
[35]
  inhibition: Active
[36]
  inhibition: Active
[11]
  inhibition: Active
[37]
  inhibition: Active
[38]
  inhibition: inactive
[39]
  inhibition: inactive
[40]
  inhibition: inactive
[12]
  Activity: Non-Toxic
[13]
  Activity: Non-Toxic
[1]
  Activity: Non-Toxic
SiHa [14]
  Activity: Active
SiHa [15]
  Activity: Active
SiHa [16]
  Activity: Active
SiHa [41]
  Activity: Active
SiHa [42]
  Activity: Active

## COc1ccc(NC(=O)c2ccc(-n3cc(COc4cc(=O)oc5ccccc45)nn3)cc2)cc1OC
MDA-MB-231 [43]
  fold change (FC): 5000
MDA-MB-231 [44]
  fold change (FC): 20

## CN1CCN(CCOc2cccc(Cn3nc(-c4nc(-c5ccc(OC(F)(F)F)cc5)no4)c4ccccc43)c2)CC1
[2]
  pIC50: 6.21
